For 38 compounds, IC50 results are on record in patent US10202354B2, “Therapeutic compounds and uses thereof” (GENENTECH, INC., priority 2015, dated 2019).

This assay addresses Full length KDM2B (Homo sapiens (Human), UniProt Q8NHM5). The assay is described as follows: KDM2B TR-FRET Assay for Determining Inhibitor IC50. The class given is biochemical. As to conditions: TR-FRET (HTRF), biotin-H3K36me2 peptide substrate. The source says:
KDM2B TR-FRET Assay for Determining Inhibitor IC50
The KDM2B TR-FRET Assay described above represents an additional embodiment of the invention.
On the technique in general: Time-resolved FRET reads energy transfer from a long-lived donor to a nearby acceptor.

Structures are written as SMILES.

Sequence of Full length KDM2B (Q8NHM5 whole entry): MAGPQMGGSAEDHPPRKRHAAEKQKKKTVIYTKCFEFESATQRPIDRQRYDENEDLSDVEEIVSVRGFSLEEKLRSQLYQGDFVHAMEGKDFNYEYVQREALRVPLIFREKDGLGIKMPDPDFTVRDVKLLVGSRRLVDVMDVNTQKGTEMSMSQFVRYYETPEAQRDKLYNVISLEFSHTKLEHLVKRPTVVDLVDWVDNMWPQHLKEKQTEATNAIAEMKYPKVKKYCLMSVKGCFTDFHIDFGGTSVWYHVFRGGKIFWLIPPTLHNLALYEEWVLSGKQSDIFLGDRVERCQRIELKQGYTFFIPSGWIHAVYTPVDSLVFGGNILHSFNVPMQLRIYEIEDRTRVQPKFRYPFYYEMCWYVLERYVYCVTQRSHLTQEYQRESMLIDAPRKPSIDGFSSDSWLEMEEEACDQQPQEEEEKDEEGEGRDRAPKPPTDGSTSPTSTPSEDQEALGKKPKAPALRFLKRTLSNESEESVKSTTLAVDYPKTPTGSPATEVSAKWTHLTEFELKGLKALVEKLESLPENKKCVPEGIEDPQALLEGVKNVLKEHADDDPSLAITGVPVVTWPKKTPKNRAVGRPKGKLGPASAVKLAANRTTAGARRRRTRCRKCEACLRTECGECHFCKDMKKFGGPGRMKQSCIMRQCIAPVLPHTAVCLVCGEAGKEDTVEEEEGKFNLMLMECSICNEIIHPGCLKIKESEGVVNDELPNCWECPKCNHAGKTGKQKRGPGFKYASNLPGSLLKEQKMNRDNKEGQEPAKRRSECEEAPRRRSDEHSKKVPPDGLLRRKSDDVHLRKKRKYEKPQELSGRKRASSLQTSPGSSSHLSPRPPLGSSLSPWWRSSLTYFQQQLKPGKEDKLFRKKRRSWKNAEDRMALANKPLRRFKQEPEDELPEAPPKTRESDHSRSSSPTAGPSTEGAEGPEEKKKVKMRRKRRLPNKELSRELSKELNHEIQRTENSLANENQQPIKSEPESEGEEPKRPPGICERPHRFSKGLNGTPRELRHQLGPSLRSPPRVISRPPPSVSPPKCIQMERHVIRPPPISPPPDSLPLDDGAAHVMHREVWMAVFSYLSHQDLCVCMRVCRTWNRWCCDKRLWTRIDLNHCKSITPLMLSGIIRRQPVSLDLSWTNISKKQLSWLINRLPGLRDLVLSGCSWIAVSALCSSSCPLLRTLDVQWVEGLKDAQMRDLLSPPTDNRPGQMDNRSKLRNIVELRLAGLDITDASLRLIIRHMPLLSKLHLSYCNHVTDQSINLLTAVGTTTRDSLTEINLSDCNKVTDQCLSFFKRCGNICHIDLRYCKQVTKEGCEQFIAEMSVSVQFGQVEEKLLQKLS

As a reminder, the IC50 is the concentration at which inhibition is half-maximal. Higher therefore signals weaker potency. `CCN1CCN(C2=N[C@H](C)CN2S(=O)(=O)c2ccc(C(C)C)cc2)CC1` [Example 43, (R)-1-ethyl-4-[1-(4-isopropylphenyl)sulfonyl-4-methyl-4,5-dihydroimidazol-2-yl]piperazine] yielded an IC50 of 8.76 nM.
Under `N#Cc1ccc(-c2ccc(S(=O)(=O)N3CCN=C3N3CCN(C4CCC4)CC3)cc2)cc1` [Example 5, 4-[4-[[2-(4-cyclobutylpiperazin-1-yl)-4,5-dihydroimidazol-1-yl]sulfonyl]phenyl]benzonitrile] stands 0.097 nM; under `COc1ccccc1C(=O)N1CCN=C1N1CCN(C2CCC2)CC1` [Example 91, [2-(4-cyclobutylpiperazin-1-yl)-4,5-dihydroimidazol-1-yl]-(2-methoxyphenyl)methanone], 11.5 nM.
In the case of `O=S(=O)(c1cccc2nonc12)N1CCN=C1N1CCN(C2CCC2)CC1` [Example 64, 4-[[2-(4-cyclobutylpiperazin-1-yl)-4,5-dihydroimidazol-1-yl]sulfonyl]-2,1,3-benzoxadiazole] it was 0.5 nM.
With `CC(C)c1ccc(S(=O)(=O)N2C[C@H](C)N=C2N2CCN(C3CCC3)CC2)cc1` [Example 47, (S)-1-cyclobutyl-4-[1-(4-isopropylphenyl)sulfonyl-4-methyl-4,5-dihydroimidazol-2-yl]piperazine], half-maximal inhibition (IC50) required 0.114 nM.
The compound `CC1CCC(N2CCN(C3=NCCN3S(=O)(=O)c3ccc(C(C)C)cc3)CC2)C1` (centres unmarked) [Example 94, 1-[1-(4-isopropylphenyl)sulfonyl-4,5-dihydroimidazol-2-yl]-4-(3-methylcyclopentyl)piperazine] yielded an IC50 of 1.42 nM.
In the case of `CCN1CCN(C2=NCCN2S(=O)(=O)c2c(Cl)cccc2Cl)CC1` [Example 118, 1-[1-(2,6-dichlorophenyl)sulfonyl-4,5-dihydroimidazol-2-yl]-4-ethyl-piperazine] it was 1.02 nM; in that of `CC(C)c1ccc(S(=O)(=O)N2CCN=C2N2CCN(C3CC(F)C3)CC2)cc1` (centres unmarked) [Example 40, 1-(3-fluorocyclobutyl)-4-[1-(4-isopropylphenyl)sulfonyl-4,5-dihydroimidazol-2-yl]piperazine], 0.391 nM; in that of `O=S(=O)(c1cccc(C2CC2)c1)N1CCN=C1N1CCN(C2CCC2)CC1` [Example 35, 1-cyclobutyl-4-[1-(3-cyclopropylphenyl)sulfonyl-4,5-dihydroimidazol-2-yl]piperazine], 0.087 nM.
With `CCN1CCN(C2=NCCN2S(=O)(=O)c2ccc(Cl)c(Cl)c2)CC1` [Example 69, 1-[1-(3,4-dichlorophenyl)sulfonyl-4,5-dihydroimidazol-2-yl]-4-ethyl-piperazine], inhibition was half-maximal at 11.5 nM (IC50).
In the case of `CC(=O)Nc1ccc(S(=O)(=O)N2CCN=C2N2CCN(C3CCC3)CC2)cc1Cl` [Example 81, N-[2-chloro-4-[[2-(4-cyclobutylpiperazin-1-yl)-4,5-dihydroimidazol-1-yl]sulfonyl]phenyl]acetamide] it was 0.127 nM; in that of `CCN1CCN(C2=NCCN2S(=O)(=O)c2ccccc2OC)CC1` [Example 111, 1-ethyl-4-[1-(2-methoxyphenyl)sulfonyl-4,5-dihydroimidazol-2-yl]piperazine], 13.3 nM.
In the case of `COc1ccccc1-c1ccc(S(=O)(=O)N2CCN=C2N2CCN(C3CCC3)CC2)cc1` [Example 24, 1-cyclobutyl-4-[1-[4-(2-methoxyphenyl)phenyl]sulfonyl-4,5-dihydroimidazol-2-yl]piperazine] it was 0.05 nM.
Under `Cc1cccc(-c2ccc(S(=O)(=O)N3CCN=C3N3CCN(C4CCC4)CC3)cc2)c1` [Example 9, 1-cyclobutyl-4-[1-[4-(m-tolyl)phenyl]sulfonyl-4,5-dihydroimidazol-2-yl]piperazine] stands 0.074 nM; under `CCN1CCN(C2=NCCN2S(=O)(=O)c2c(F)cccc2F)CC1` [Example 108, 1-[1-(2,6-difluorophenyl)sulfonyl-4,5-dihydroimidazol-2-yl]-4-ethyl-piperazine], 12.8 nM.
With `O=S(=O)(c1ccc2c(c1)CCCC2)N1CCN=C1N1CCN(C2CCC2)CC1` [Example 32, 1-cyclobutyl-4-(1-tetralin-6-ylsulfonyl-4,5-dihydroimidazol-2-yl)piperazine], 0.016 nM corresponded to half-maximal inhibition (IC50).
`CC(C)c1ccc(S(=O)(=O)N2CCN=C2N2C3CCC2CN(C2CCC2)C3)cc1` [Example 48, 3-cyclobutyl-8-[1-(4-isopropylphenyl)sulfonyl-4,5-dihydroimidazol-2-yl]-3,8-diazabicyclo[3.2.1]octane] showed an IC50 of 1.19 nM.
Under `O=S(=O)(c1ccc(-c2cncnc2)cc1)N1CCN=C1N1CCN(C2CCC2)CC1` [Example 30, 5-[4-[[2-(4-cyclobutylpiperazin-1-yl)-4,5-dihydroimidazol-1-yl]sulfonyl]phenyl]pyrimidine] stands 0.06 nM.
In turn, `CCN1CCN(C2=NCCN2S(=O)(=O)c2cccc3nonc23)CC1` [Example 120, 4-[[2-(4-ethylpiperazin-1-yl)-4,5-dihydroimidazol-1-yl]sulfonyl]-2,1,3-benzoxadiazole] gave an IC50 of 13.3 nM.
`CC1CC(N2CCN(C3=NCCN3S(=O)(=O)c3ccc(C(C)C)cc3)CC2)C1` (centres unmarked) [Example 39, 1-[1-(4-isopropylphenyl)sulfonyl-4,5-dihydroimidazol-2-yl]-4-(3-methylcyclobutyl)piperazine] returned an IC50 of 0.86 nM.
In the case of `CC(=O)Nc1ccc(S(=O)(=O)N2CCN=C2N2CCN(C3CCC3)CC2)cc1` [Example 70, N-[4-[[2-(4-cyclobutylpiperazin-1-yl)-4,5-dihydroimidazol-1-yl]sulfonyl]phenyl]acetamide] it was 0.094 nM.
In the case of `O=S(=O)(c1ccc2cc(Cl)ccc2c1)N1CCN=C1N1CCN(C2CCC2)CC1` [Example 74, 1-[1-[(6-chloro-2-naphthyl)sulfonyl]-4,5-dihydroimidazol-2-yl]-4-cyclobutyl-piperazine], 0.041 nM corresponded to half-maximal inhibition (IC50).
Under `O=S(=O)(c1ccc(-c2cccnc2)cc1)N1CCN=C1N1CCN(C2CCC2)CC1` [Example 7, 1-cyclobutyl-4-[1-[4-(3-pyridyl)phenyl]sulfonyl-4,5-dihydroimidazol-2-yl]piperazine] stands 0.151 nM; under `CC(C)c1ccc(S(=O)(=O)N2C[C@H](C3CC3)N=C2N2CCN(C3CCC3)CC2)cc1` [Example 42, (S)-1-cyclobutyl-4-(4-cyclopropyl-1-((4-isopropylphenyl)sulfonyl)-4,5-dihydro-1H-imidazol-2-yl)piperazine], 0.047 nM.
Under `N#Cc1ccccc1-c1ccc(S(=O)(=O)N2CCN=C2N2CCN(C3CCC3)CC2)cc1` [Example 1, 2-[4-[[2-(4-cyclobutylpiperazin-1-yl)-4,5-dihydroimidazol-1-yl]sulfonyl]phenyl]benzonitrile] stands 0.053 nM; under `CC(C)c1ccc(S(=O)(=O)N2CCN=C2N2CCN(C3CCC3)CC2)cc1` [Example 31, 1-cyclobutyl-4-(1-((4-isopropylphenyl)sulfonyl)-4,5-dihydro-1H-imidazol-2-yl)piperazine], 0.043 nM; under `O=S(=O)(c1ccc(-c2ccc(C(F)(F)F)cc2)cc1)N1CCN=C1N1CCN(C2CCC2)CC1` [Example 12, 1-cyclobutyl-4-[1-[4-[4-(trifluoromethyl)phenyl]phenyl]sulfonyl-4,5-dihydroimidazol-2-yl]piperazine], 0.38 nM.
Under `O=C(c1ccccc1Cl)N1CCN=C1N1CCN(C2CCC2)CC1` [Example 87, (2-chlorophenyl)-[2-(4-cyclobutylpiperazin-1-yl)-4,5-dihydroimidazol-1-yl]methanone] stands 2.23 nM; under `CC(C)c1ccc(S(=O)(=O)N2C[C@@H](C3CC3)N=C2N2CCN(C3CCC3)CC2)cc1` [Example 41, (R)-1-cyclobutyl-4-(4-cyclopropyl-1-((4-isopropylphenyl)sulfonyl)-4,5-dihydro-1H-imidazol-2-yl)piperazine], 0.039 nM.
Consider `CCN1CCN(C2=NCCN2S(=O)(=O)c2cc(Cl)ccc2Cl)CC1` [Example 106, 1-[1-(2,5-dichlorophenyl)sulfonyl-4,5-dihydroimidazol-2-yl]-4-ethyl-piperazine], for which the IC50 came to 3.57 nM.
As to `O=S(=O)(c1ccc(-c2cccc(F)c2)cc1)N1CCN=C1N1CCN(C2CCC2)CC1` [Example 26, 1-cyclobutyl-4-[1-[4-(3-fluorophenyl)phenyl]sulfonyl-4,5-dihydroimidazol-2-yl]piperazine], the IC50 worked out at 0.138 nM.
The compound `CCN1CCN(C2=NCCN2S(=O)(=O)c2ccc(OC)cc2)CC1` [Example 116, 1-ethyl-4-[1-(4-methoxyphenyl)sulfonyl-4,5-dihydroimidazol-2-yl]piperazine] displayed an IC50 of 5.45 nM.
The compound `O=S(=O)(c1cccc(C(F)(F)F)c1)N1CCN=C1N1CCN(C2CCC2)CC1` [Example 60, 1-cyclobutyl-4-[1-[3-(trifluoromethyl)phenyl]sulfonyl-4,5-dihydroimidazol-2-yl]-piperazine] had a half-maximal inhibitory concentration (IC50) of 0.278 nM.
With `O=S(=O)(c1ccc(-c2ccc(F)cc2)cc1)N1CCN=C1N1CCN(C2CCC2)CC1` [Example 27, 1-cyclobutyl-4-[1-[4-(4-fluorophenyl)phenyl]sulfonyl-4,5-dihydroimidazol-2-yl]piperazine], the concentration for half-maximal inhibition (IC50) stood at 0.071 nM.
Under `CCN1CCN(C2=NCCN2S(=O)(=O)c2cccc(OC)c2)CC1` [Example 115, 1-ethyl-4-[1-(3-methoxyphenyl)sulfonyl-4,5-dihydroimidazol-2-yl]piperazine] stands 3.57 nM; under `CCN1CCN(C2=NCCN2S(=O)(=O)c2cnn(CC)c2C)CC1` [Example 119, 1-ethyl-4-[1-(1-ethyl-5-methyl-pyrazol-4-yl)sulfonyl-4,5-dihydroimidazol-2-yl]piperazine], 11.4 nM.
In the case of `O=S(=O)(c1cc(Cl)cc(Cl)c1)N1CCN=C1N1CCN(C2CCC2)CC1` [Example 62, 1-cyclobutyl-4-[1-(3,5-dichlorophenyl)sulfonyl-4,5-dihydroimidazol-2-yl]piperazine] it was 0.306 nM; in that of `Cc1cccc(C(=O)N2CCN=C2N2CCN(C3CCC3)CC2)c1` [Example 85, [2-(4-cyclobutylpiperazin-1-yl)-4,5-dihydroimidazol-1-yl]-(m-tolyl)methanone], 3.12 nM.
